According to US10946019B2, “Nurr1:RXR activating compounds for simultaneous treatment of symptoms and pathology of Parkinson's disease” (priority 2015, dated 2021):

Tests used:
c-jun = experiment: Midbrain c-jun expression by qPCR after administration to mice; format: in vivo, mouse; settings: IP compound 3, qPCR 2 hours after administration
Protocol: FIGS. 69A-69C show the brain penetration, half-life, and c-jun transcriptional activation of compound 3. […] Mice (n=5) were sacrificed 1, 2, 4, 8 and 24 hours after IP administration and brains were dissected 1, 2, 4, 8 and 24 hours post administration. The concentrations of the parent compound in plasma and brain were determined by LC/MSMS.
(§1) To assess the neuroprotective effect of compound 3, this compound was dosed to wt mice intraperitoneally (IP) at 10 mg/kg injections of compound 3 in Ethanol:PG:Saline 10:30:60. After 2 h and 4 h animals (n=3 per time point) were sacrificed, and their brains obtained. After extraction c-jun and tyrosine hydroxylase (TH) levels in brain extract were determined by qPCR (FIG. 1E, 1F).

[1] = system: LRRK2-G2019S mutated DAergic neurons; experiment: Neurite phenotypes of PD patient LRRK2-G2019S iPSc-derived DAergic neurons; format: cell-based, human; settings: 12.5 μM for 14 days
Protocol: To ascertain the translational therapeutic potential of compound 3, we tested whether human midbrain-specific iPSc-derived DAergic neurons, as indicated by positive staining and qPCR for the neuronal markers MAP2, TH, FoxA2, Lmx1 and En1, can be protected from MPP+ toxicity. Compound 3 was able to double the number of surviving neurons after MPP+ exposure within 24 hours, compared to vehicle (FIGS. 72J-72L). The surviving control neurons had fewer and retreating projections, indicating compromised function (FIG. 72K) while the neurons that had received compound 3 had retained a complex network of projections and contacts (FIG. 72L). In addition, we tested compound 3 in iPSc-derived DAergic neurons from a PD patient carrying the LRRK2-G2019S mutation.

[2] = system: tyrosine hydroxylase (TH); experiment: Midbrain tyrosine hydroxylase expression by qPCR after administration to mice; format: in vivo, mouse; settings: wt mice, single IP 10 mg/kg, within 4 hours
Protocol: as §1
Given the role of Nurr1:RXRα activation in the transcriptional regulation of DA biosynthesis genes, we tested whether compound 3 could increase DA levels in wt and ASYN transgenic mice (Tofaris et al. J. Neurosci. 26:3942-3950, 2006), which display reduced striatal DA levels after reaching adulthood. […] Aiming to model PD based on human genetic data, we also tested whether compound 3 could increase DA levels in ASYN transgenic mice. A single IP injection of compound 3 (10 mg/kg) was able increase striatal DA (t test p=0.01069) and DA metabolite levels in ASYN transgenics as well (FIG. 75C) in comparison to mice receiving vehicle.

[3] = Plasma and brain concentrations by LC-MS/MS after IP administration to mice; format: in vivo, mouse; settings: mouse, in vivo, ip
Protocol: FIGS. 68A and 68B show the pharmacokinetic profile of XCT in blood plasma and in the brain of mice injected with this compound. […] Serial tail bleeds (n=3) were used for detection of the compound in plasma 1 and 2 hours after IP administration. Similarly, mice (n=3) were sacrificed 1 and 2 hours after IP administration and brains were dissected. The concentrations of the parent compound in plasma and brain were determined by LC-MS/MS.
The concentrations of the parent compound in plasma and brain were determined by LC/MSMS.
XCT0135908 was administered to mice to test its bioactivity.

C=CCc1c(N(C)c2ccc(C(=O)O)cc2)nc(-c2ccccc2)nc1C(F)(F)F [Example 3, 4-((5-allyl-2-phenyl-6-(trifluoromethyl)pyrimidin-4-yl)(methyl)amino)benzoic acid]
midbrain c-jun expression (c-jun): increased | increase of neurite branching [1]: 650% | increase of neurite length [1]: 83% | increase of neurite number [1]: 38% | TH gene expression in the midbrain [2]: increased | brain penetration [3]: reaching the brain | half-life ([3]; 1 mg/kg): ~2 h
